The target in the experiment is T1, BCL6 (Homo sapiens, UniProt P41182).
T1 construct: endogenous in cells; host or cells: T47D breast cancer epithelial cells
Briefly: Immunofluorescence protocol for high content imaging of BCL6 (degradation) in T47D cells, 3 days compound treatment. Format: cell-based. As to conditions: T47D cells, 3 days compound treatment; for DC50: read-out: Mean DC50 (nM)* category; for Dmax: read-out: Mean Dmax (%)** category. The procedure, abridged: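 For degradation, compound series (3-fold, 11 points, top 0.1 or 1 μM final) were added to adherent T47D cultures for 3 days. BCL6 immunostaining used a rabbit antibody at 1:300 and an Alexa-488 secondary, with imaging at 10× magnification.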

SMILES strings stand for the structures.

What is called DC50 is the concentration at which degradation of the target reaches its halfway point. A word on the Dmax: it is the largest share of the target that was removed.

Turning to `CNC(=O)COc1cc2cc(Nc3nc(N4CCC(F)(CN5CC6(CCN(c7cccc8c7CN(C7CCC(=O)NC7=O)C8=O)CC6)C5)CC4)ncc3Cl)ccc2n(C(C)C)c1=O` (centres unmarked) [Compound 99], the DC50 was under 10 nM and the greatest degradation seen (Dmax) was 50 to 70%.

`CNC(=O)COc1cc2cc(Nc3nc(N4CCC(CN5CCC6(CN(c7cc8c(cc7F)C(=O)N(C7CCC(=O)NC7=O)C8)C6)C(F)(F)C5)CC4)ncc3Cl)ccc2n(C(C)C)c1=O` (centres unmarked) [Compound 100, 2-{[6-({5-chloro-2-[4-({2-[2-(2,6-dioxopiperidin-3-yl)-6-fluoro-1-oxo-2,3-dihydro-1H-isoindol-5-yl]-5,5-difluoro-2,7-diazaspiro[3.5]nonan-7-yl}methyl)piperidin-1-yl]pyrimidin-4-yl}amino)-2-oxo-1-(propan-2-yl)-1,2-dihydroquinolin-3-yl]oxy}-N-methylacetamide]: the half-maximal degradation concentration (DC50) is under 10 nM and the Dmax lay within 50 to 70%.

Regarding `CNC(=O)COc1cc2cc(Nc3nc(N4CCC(CN5CCC6(CN(c7cc8c(c(OC)c7)C(=O)N(C7CCC(=O)NC7=O)C8)C6)C(F)(F)C5)CC4)ncc3Cl)ccc2n(C(C)C)c1=O` (centres unmarked) [Compound 101, 2-{[6-({5-chloro-2-[4-({2-[2-(2,6-dioxopiperidin-3-yl)-7-methoxy-1-oxo-2,3-dihydro-1H-isoindol-5-yl]-5,5-difluoro-2,7-diazaspiro[3.5]nonan-7-yl}methyl)piperidin-1-yl]pyrimidin-4-yl}amino)-2-oxo-1-(propan-2-yl)-1,2-dihydroquinolin-3-yl]oxy}-N-methylacetamide], the DC50 was under 10 nM and the Dmax fell in the range of 50 to 70%.

`CNC(=O)COc1cc2cc(Nc3nc(N4CCC(CN5CCC6(CN(c7cccc8c7CN(C7CCC(=O)NC7=O)C8=O)C6)C(F)(F)C5)CC4)ncc3Cl)ccc2n(C(C)C)c1=O` (centres unmarked) [Compound 102, 2-{[6-({5-chloro-2-[4-({2-[2-(2,6-dioxopiperidin-3-yl)-1-oxo-2,3-dihydro-1H-isoindol-4-yl]-5,5-difluoro-2,7-diazaspiro[3.5]nonan-7-yl}methyl)piperidin-1-yl]pyrimidin-4-yl}amino)-2-oxo-1-(propan-2-yl)-1,2-dihydroquinolin-3-yl]oxy}-N-methylacetamide]: the 50% degradation concentration (DC50) was under 10 nM and the maximal degradation (Dmax) was 50 to 70%.

With `CNC(=O)COc1cc2cc(Nc3nc(N4CCC(O[C@H]5C[C@H](N6CCC(c7cc8c(c(OC)c7)C(=O)N(C7CCC(=O)NC7=O)C8)CC6)C5)CC4)ncc3Cl)ccc2n(C(C)C)c1=O` (some centres unmarked) [Compound 103, 2-({6-[(5-chloro-2-{4-[(1r,3r)-3-{4-[2-(2,6-dioxopiperidin-3-yl)-7-methoxy-1-oxo-2,3-dihydro-1H-isoindol-5-yl]piperidin-1-yl}cyclobutoxy]piperidin-1-yl}pyrimidin-4-yl)amino]-2-oxo-1-(propan-2-yl)-1,2-dihydroquinolin-3-yl}oxy)-N-methylacetamide], the half-maximal degradation concentration (DC50) is under 10 nM and the Dmax lay within 50 to 70%.

On to `CNC(=O)COc1cc2cc(Nc3nc(N4CCN(C(C)(C)C5CCN(c6cccc7c6CN(C6CCC(=O)NC6=O)C7=O)CC5)CC4)ncc3Cl)ccc2n(C(C)C)c1=O` (centres unmarked) [Compound 104, 2-{[6-({5-chloro-2-[4-(2-{1-[2-(2,6-dioxopiperidin-3-yl)-1-oxo-2,3-dihydro-1H-isoindol-4-yl]piperidin-4-yl}propan-2-yl)piperazin-1-yl]pyrimidin-4-yl}amino)-2-oxo-1-(propan-2-yl)-1,2-dihydroquinolin-3-yl]oxy}-N-methylacetamide], for which the DC50 was under 10 nM and the Dmax was 50 to 70%.

On to `CNC(=O)COc1cc2cc(Nc3nc(N4CCN(CC5CCN(c6cc(F)cc7c6CN(C6CCC(=O)NC6=O)C7=O)CC5)CC4)ncc3Cl)ccc2n(C(C)C)c1=O` (centres unmarked) [Compound 105, 2-{[6-({5-chloro-2-[4-({1-[2-(2,6-dioxopiperidin-3-yl)-6-fluoro-1-oxo-2,3-dihydro-1H-isoindol-4-yl]piperidin-4-yl}methyl)piperazin-1-yl]pyrimidin-4-yl}amino)-2-oxo-1-(propan-2-yl)-1,2-dihydroquinolin-3-yl]oxy}-N-methylacetamide], for which the DC50 was under 10 nM and the Dmax was in the range of 50 to 70%.

Consider `CNC(=O)COc1cc2cc(Nc3nc(N4CCC(F)(CN5CC6(CCN(c7cc8c(cc7F)C(=O)N(C7CCC(=O)NC7=O)C8)CC6)C5)CC4)ncc3Cl)ccc2n(C(C)C)c1=O` (centres unmarked) [Compound 106], for which the DC50 is under 10 nM and the maximal degradation (Dmax) is 50 to 70%.

For `CNC(=O)COc1cc2cc(Nc3nc(N4CCC(O[C@H]5CC[C@H](N(C)C6CN(c7ccc8c(c7)C(=O)N(C7CCC(=O)NC7=O)C8=O)C6)CC5)CC4)ncc3Cl)ccc2n(C(C)C)c1=O` (some centres unmarked) [Compound 107, 2-[(6-{[5-chloro-2-(4-{[(1r,4r)-4-({1-[2-(2,6-dioxopiperidin-3-yl)-1,3-dioxo-2,3-dihydro-1H-isoindol-5-yl]azetidin-3-yl}(methyl)amino)cyclohexyl]oxy}piperidin-1-yl)pyrimidin-4-yl]amino}-2-oxo-1-(propan-2-yl)-1,2-dihydroquinolin-3-yl)oxy]-N-methylacetamide], the DC50 was under 10 nM and the Dmax lay in the range of 50 to 70%.

For the compound `CNC(=O)COc1cc2cc(Nc3nc(N4CCC(O[C@H]5CC[C@H](N(C)C6CN(c7cccc8c7C(=O)N(C7CCC(=O)NC7=O)C8=O)C6)CC5)CC4)ncc3Cl)ccc2n(C(C)C)c1=O` (some centres unmarked) [Compound 108, 2-[(6-{[5-chloro-2-(4-{[(1r,4r)-4-({1-[2-(2,6-dioxopiperidin-3-yl)-1,3-dioxo-2,3-dihydro-1H-isoindol-4-yl]azetidin-3-yl}(methyl)amino)cyclohexyl]oxy}piperidin-1-yl)pyrimidin-4-yl]amino}-2-oxo-1-(propan-2-yl)-1,2-dihydroquinolin-3-yl)oxy]-N-methylacetamide], the 50% degradation concentration (DC50) is under 10 nM and the Dmax fell in the range of 50 to 70%.

With `CNC(=O)COc1cc2cc(Nc3nc(N4CCC5(CCN(CC6(F)CCN(c7cc(F)cc8c7CN(C7CCC(=O)NC7=O)C8=O)CC6)CC5)CC4)ncc3Cl)ccc2n(C(C)C)c1=O` (centres unmarked) [Compound 109, 2-{[6-({5-chloro-2-[9-({1-[2-(2,6-dioxopiperidin-3-yl)-6-fluoro-1-oxo-2,3-dihydro-1H-isoindol-4-yl]-4-fluoropiperidin-4-yl}methyl)-3,9-diazaspiro [5.5]undecan-3-yl]pyrimidin-4-yl}amino)-2-oxo-1-(propan-2-yl)-1,2-dihydroquinolin-3-yl]oxy}-N-methylacetamide], the DC50 is under 10 nM and the Dmax was 50 to 70%.

With `CNC(=O)COc1cc2cc(Nc3nc(N4CCC(O[C@H]5CC[C@@H](N6CCC(c7ccc8c(c7)C(=O)N(C7CCC(=O)NC7=O)C8=O)CC6)CC5)CC4)ncc3Cl)ccc2n(C(C)C)c1=O` (some centres unmarked) [Compound 110, 2-[(6-{[5-chloro-2-(4-{[(1s,4s)-4-{4-[2-(2,6-dioxopiperidin-3-yl)-1,3-dioxo-2,3-dihydro-1H-isoindol-5-yl]piperidin-1-yl}cyclohexyl]oxy}piperidin-1-yl)pyrimidin-4-yl]amino}-2-oxo-1-(propan-2-yl)-1,2-dihydroquinolin-3-yl)oxy]-N-methylacetamide], the 50% degradation concentration (DC50) is at least 100 nM and the Dmax is at least 70%.

As for `CNC(=O)COc1cc2cc(Nc3nc(N4CCC(CN5CCC6(CC5)CN(c5ccc7c(c5)C(=O)N(C5CCC(=O)NC5=O)C7=O)C6)CC4)ncc3Cl)cc(F)c2n(C(C)C)c1=O` (centres unmarked) [Compound 111, 2-{[6-({5-chloro-2-[4-({2-[2-(2,6-dioxopiperidin-3-yl)-1,3-dioxo-2,3-dihydro-1H-isoindol-5-yl]-2,7-diazaspiro[3.5]nonan-7-yl}methyl)piperidin-1-yl]pyrimidin-4-yl}amino)-8-fluoro-2-oxo-1-(propan-2-yl)-1,2-dihydroquinolin-3-yl]oxy}-N-methylacetamide], the DC50 was under 10 nM and the Dmax fell in the range of 50 to 70%.

In the case of `CNC(=O)COc1cc2cc(Nc3nc(N4CCN(C(C)(C)C5CCN(c6cc7c(cc6OC)C(=O)N(C6CCC(=O)NC6=O)C7)CC5)CC4)ncc3Cl)ccc2n(C(C)C)c1=O` (centres unmarked) [Compound 112, 2-{[6-({5-chloro-2-[4-(2-{1-[2-(2,6-dioxopiperidin-3-yl)-6-methoxy-1-oxo-2,3-dihydro-1H-isoindol-5-yl]piperidin-4-yl}propan-2-yl)piperazin-1-yl]pyrimidin-4-yl}amino)-2-oxo-1-(propan-2-yl)-1,2-dihydroquinolin-3-yl]oxy}-N-methylacetamide], the DC50 is under 10 nM and the Dmax fell in the range of 50 to 70%.

As for `CNC(=O)COc1cc2cc(Nc3nc(N4CCN(CC5(F)CCN(c6ccc7c(c6)CN(C6CCC(=O)NC6=O)C7=O)CC5)CC4)ncc3Cl)ccc2n(C(C)C)c1=O` (centres unmarked) [Compound 113, 2-{[6-({5-chloro-2-[4-({1-[2-(2,6-dioxopiperidin-3-yl)-1-oxo-3H-isoindol-5-yl]-4-fluoropiperidin-4-yl}methyl)piperazin-1-yl]pyrimidin-4-yl}amino)-1-isopropyl-2-oxoquinolin-3-yl]oxy}-N-methylacetamide], the DC50 was under 10 nM and the Dmax was 50 to 70%.

As to `CNC(=O)COc1cc2cc(Nc3nc(N4CCN(CC5(F)CCN(c6cccc7c6CN(C6CCC(=O)NC6=O)C7=O)CC5)CC4)ncc3Cl)ccc2n(C(C)C)c1=O` (centres unmarked) [Compound 114, 2-{[6-({5-chloro-2-[4-({1-[2-(2,6-dioxopiperidin-3-yl)-1-oxo-2,3-dihydro-1H-isoindol-4-yl]-4-fluoropiperidin-4-yl}methyl)piperazin-1-yl]pyrimidin-4-yl}amino)-2-oxo-1-(propan-2-yl)-1,2-dihydroquinolin-3-yl]oxy}-N-methylacetamide], the DC50 is under 10 nM and the Dmax lay in the range of 50 to 70%.

These data come from patent publication US11986532B2 (Arvinas Operations, Inc., priority 2021, dated 2024).
